Test results as given in PMC5514153, “Targeting PTPRZ inhibits stem cell-like properties and tumorigenicity in glioblastoma cells” (Scientific Reports, 2017).
pIC50: −log10 of the molar value.

How the values were obtained:
[1] = test system: oligodendrocyte precursor OL1 cells; test: OL1 oligodendrocyte differentiation assay; type: cell-based, mouse; conditions: 10 days in differentiation media
Protocol: Figure 6 Effects of NAZ2329 treatment on oligodendrocyte differentiation. Mouse oligodendrocyte-lineage OL1 cells were cultured in differentiation media containing the indicated concentrations of NAZ2329. After 10 days, cells were fixed with formalin and stained with anti-NG2 proteoglycan (oligodendrocyte precursor cells, red) and anti-MBP (oligodendrocyte, green) antibodies, in conjunction with the DAPI-labeling of nuclei (blue). Scale bars, 100 µm.
The preparation of mouse oligodendrocyte-lineage OL1 cells was described previously. […] On the 10th day of the culture, differentiation from oligodendrocyte precursor cells to oligodendrocytes was assessed was described previously[14]–[16]. Briefly, cells were fixed and stained with anti-NG2 (a specific marker for oligodendrocyte precursor cells) and anti-MBP (a marker for matured oligodendrocytes), and the observed with a standard fluorescence microscope (Biozero BZ8000, Keyence). Differentiation from oligodendrocyte precursor cells to oligodendrocytes was expressed as the ratio of MBP-positive cells to NG2-positive cells.

hPTPRZ1 (D1) = biological target: T1, hPTPRZ1 (D1) (Homo sapiens, UniProt P23471); test: In vitro PTPase assay (DiFMUP), PTPRZ1 D1 domain; type: biochemical; conditions: first PTP domain fragment
T1 construct: human PTPRZ1-D1 (amino acid residues, 1,698-2,000)

[2] = test system: paxillin at Tyr-118 in C6 cells; test: Paxillin Tyr-118 phosphorylation in C6 cells (Western blot); type: cell-based, rat; conditions: 25 µM
Protocol: Figure 7 Cellular effects of NAZ2329 on the malignant phenotypes of C6 cells. (A) Phosphorylation of paxillin at Tyr-118. C6 cells were incubated with NAZ2329 for the indicated periods. Immunoprecipitated paxillin was analyzed by Western blotting using anti-pY118-paxillin and anti-paxillin. Blots are representative of five independent cultures. […] (B) Cell proliferation assay. C6 cells were incubated for 48 h with NAZ2329 in normal medium containing 2% FBS. […] (C) Boyden chamber assay. Cells were allowed to migrate for 3 h. DAPI-stained nuclei are shown before (total) and after (migrated) the removal of cells remaining in the top chamber. Scale bars, 100 µm. […] (D,E) Sphere formation (D) and SOX2 expression (E). C6 cells were cultured in CSC medium for 7 days with indicated concentrations of NAZ2329. Images are representative of five independent cultures. Scale bars, 100 µm. […] (F) Self-renewal of C6 spheres. […]
After precleaning the extracts with Protein G Sepharose (#17-0618-02, GE Healthcare), samples were subjected to immunoprecipitation with Protein G Sepharose coated with a mouse anti-paxillin antibody. […] The binding of these antibodies was detected with Luminata Forte Western HRP substrate (Millipore) and imaged with a chemiluminescent image analyzer system (EZ-Caputure MG, Atto Corp).

T1 sequence (P23471 1698-2000 limits assumed): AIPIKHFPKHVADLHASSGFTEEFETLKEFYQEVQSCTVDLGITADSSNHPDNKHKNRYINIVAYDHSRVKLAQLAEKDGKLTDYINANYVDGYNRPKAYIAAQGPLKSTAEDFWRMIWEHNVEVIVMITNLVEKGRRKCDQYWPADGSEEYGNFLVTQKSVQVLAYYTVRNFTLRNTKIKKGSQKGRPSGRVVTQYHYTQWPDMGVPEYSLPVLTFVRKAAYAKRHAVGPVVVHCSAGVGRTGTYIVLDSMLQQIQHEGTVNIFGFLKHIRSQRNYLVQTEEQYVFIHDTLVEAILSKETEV

## CCOc1ccc(C(F)(F)F)cc1CSc1ccsc1C(=O)NS(=O)(=O)c1ccccc1 [NAZ2329]
[1]
  differentiation of OL1 cells to mature oligodendrocytes (MBP-positive/NG2-positive ratio): dose-dependently induced the differentiation
hPTPRZ1 (D1)
  pIC50: 5.96
[2]
  phosphorylation level of paxillin at Tyr-118: significantly enhanced the phosphorylation level
